From patent US5371090A, “Naphthyridonecarboxylic acid derivatives” (Bayer Aktiengesellschaft, priority 1991, dated 1994)
Values after ≈ are worked out from the molar mass of the structure shown. Like-named read-outs stand apart in the source and are kept apart here.

Experiments:
Assay in all cases: MIC on Iso-Sensitest agar, serial dilution
Format in all cases: cell-based
[1] = tested on: E. coli; details: Escherichia coli, 20 h, 37° C., approx. 20 hours
Method: (§1) The minimum inhibitory concentrations (MICs) were determined on Iso-Sensitest agar (Oxoid) using serial dilution methods. For each test substance a series of agar plates was prepared which contained concentrations of the active substance which decreased as the dilution factor was doubled. The agar plates were inoculated by means of a multipoint inoculator (Denley). The inocula used were overnight cultures of the pathogens which had previously been diluted to such an extent that each inoculation point contained approx. 10^4 colony-forming units. The inoculated agar plates were incubated at 37° C., and the growth of the germs was read off after approx. 20 hours.

[2] = tested on: Providencia spp.
Method: as §1

[3] = tested on: Klebsiella sp.
Method: as §1

[4] = tested on: Enterococcus faecalis
Method: as §1

[5] = tested on: Staphylococcus aureus; details: 37° C., approx. 20 hours
Method: as §1, with “hours. The MIC value (μg/ml) indicates the lowest concentration of active compound at which no growth could be observed with the naked eye.” for “hours.”

[6] = tested on: Pseudomonas aeruginosa
Method: as §1, with “hours. The MIC value (μg/ml) indicates the lowest concentration of active compound at which no growth could be observed with the naked eye.” for “hours.”

[7] = tested on: Morganella morg.
Method: as §1

[8] = Enterococcus faecalis, 20 h, Enterococcus faecalis strain 9790, 37° C., approx. 20 hours, read-out: MIC
[9] = Staphylococcus aureus strain 133
[10] = Staphylococcus aureus strain 1756, read-out: MIC
[11] = Pseudomonas aeruginosa strain Walter, 37° C., approx. 20 hours, read-out: MIC
[12] = Enterococcus faecalis, 20 h, Enterococcus faecalis strain 27101, 37° C., approx. 20 hours
[13] = Staphylococcus aureus, 20 h, Staphylococcus aureus strain 133
[14] = Enterococcus faecalis, 20 h, Enterococcus faecalis strain 9790, 37° C., approx. 20 hours
[15] = Morganella morg. strain 932, 37° C., approx. 20 hours, read-out: MIC
[16] = Providencia spp. strain 12012, 37° C., approx. 20 hours, read-out: MIC
[17] = Klebsiella sp. strain 8085, 37° C., approx. 20 hours, read-out: MIC
[18] = Enterococcus faecalis, 20 h, Enterococcus faecalis strain 27101, 37° C., approx. 20 hours, read-out: MIC

SMILES	MIC ([1]; E. coli strain 455/7) [µg/mL]	MIC ([2]; Providencia, 20 h) [µg/mL]	MIC ([3]; Klebsiella, 20 h) [µg/mL]	MIC ([4]; Enterococcus faecalis strain 27101, 37° C., approx. 20 hours, read-out: MIC) [µg/mL]	MIC [4, 8] [µg/mL]	MIC [5, 9] [µg/mL]	MIC [5, 10] [µg/mL]	MIC [6, 11] [µg/mL]	MIC ([1]; E. coli strain Neumann) [µg/mL]	MIC [4, 12] [µg/mL]	MIC [5, 13] [µg/mL]	MIC ([6]; Pseudomonas aeruginosa, 20 h) [µg/mL]	MIC ([7]; Morganella, 20 h) [µg/mL]	MIC ([4]; Enterococcus faecalis, 20 h) [µg/mL]	MIC [4, 14] [µg/mL]	MIC ([5]; Staphylococcus aureus, 20 h, Staphylococcus aureus strain 1756) [µg/mL]	MIC [7, 15] [µg/mL]	MIC [2, 16] [µg/mL]	MIC [3, 17] [µg/mL]	MIC [4, 18] [µg/mL]
Cl.O=C(O)c1cn(C2CC2)c2c(F)c(N3Cc4cccnc4C3)c(F)cc2c1=O [Example 1B, 1-cyclopropyl-7-(5,7-dihydro-6H-pyrrolo[3,4-b]pyridin-6-yl)-6,8-difluoro-1,4-dihydro-4-oxo-3-quinolinecarboxylic acid hydrochloride]	8	0.25	0.25	0.01	0.06	0.02	0.02	4	–	–	–	–	–	–	–	–	–	–	–	–
O=C(O)c1cn(C2CC2)c2c(F)c(N3Cc4ccncc4C3)c(F)cc2c1=O [Example 2, 1-cyclopropyl-7-(2,3-dihydro-1H-pyrrolo[3,4-c]pyridin-2-yl)-6,8-difluoro-1,4-dihydro-4-oxo-3-quinolinecarboxylic acid]	8 (≈ 20.9 µM)	0.25 (≈ 0.652 µM)	–	–	–	–	0.06 (≈ 0.157 µM)	–	0.06 (≈ 0.157 µM)	0.25 (≈ 0.652 µM)	0.25 (≈ 0.652 µM)	1 (≈ 2.61 µM)	–	–	–	–	–	–	–	–
O=C(O)c1cn(C2CC2)c2nc(N3Cc4cccnc4C3)c(F)cc2c1=O [Example 3]	128 (≈ 349 µM)	0.5 (≈ 1.36 µM)	0.5 (≈ 1.36 µM)	–	–	–	–	–	–	–	0.25 (≈ 0.682 µM)	2 (≈ 5.46 µM)	0.25 (≈ 0.682 µM)	0.5 (≈ 1.36 µM)	0.5 (≈ 1.36 µM)	0.25 (≈ 0.682 µM)	–	–	–	–
O=C(O)c1cn(C2CC2)c2cc(N3Cc4ccncc4C3)c(F)cc2c1=O [Example 4, 1-cyclopropyl-7-(2,3-dihydro-1H-pyrrolo[3,4-c]pyridin-2-yl)-6-fluoro-1,4-dihydro-4-oxo-3-quinolinecarboxylic acid]	128 (≈ 350 µM)	–	–	–	0.25 (≈ 0.684 µM)	0.06 (≈ 0.164 µM)	0.06 (≈ 0.164 µM)	4 (≈ 10.9 µM)	0.06 (≈ 0.164 µM)	–	–	–	–	–	–	–	0.5 (≈ 1.37 µM)	0.5 (≈ 1.37 µM)	0.25 (≈ 0.684 µM)	0.25 (≈ 0.684 µM)
O=C(O)c1cn(C2CC2)c2cc(N3Cc4cccnc4C3)c(F)cc2c1=O [Example 5, 1-cyclopropyl-7-(5,7-dihydro-6H-pyrrolo[3,4-b]-pyridin-6-yl)-6-fluoro-1,4-dihydro-4-oxo-3-quinolinecarboxylic acid]	128 (≈ 350 µM)	–	1 (≈ 2.74 µM)	–	0.25 (≈ 0.684 µM)	0.13 (≈ 0.356 µM)	0.13 (≈ 0.356 µM)	128 (≈ 350 µM)	0.13 (≈ 0.356 µM)	–	–	–	–	–	–	–	0.13 (≈ 0.356 µM)	0.5 (≈ 1.37 µM)	–	0.25 (≈ 0.684 µM)
O=C(O)c1cn(C2CC2)c2nc(N3Cc4ccncc4C3)c(F)cc2c1=O [Example 6, 1-cyclopropyl-7-(2,3-dihydro-1H-pyrrolo[3,4-c]pyridin-2-yl]-6-fluoro-1,4-dihydro-4-oxo-1,8-naphthyridine-3-carboxylic acid]	128 (≈ 349 µM)	–	0.5 (≈ 1.36 µM)	–	–	0.25 (≈ 0.682 µM)	0.25 (≈ 0.682 µM)	16 (≈ 43.7 µM)	0.13 (≈ 0.355 µM)	–	–	–	–	0.5 (≈ 1.36 µM)	0.5 (≈ 1.36 µM)	–	0.25 (≈ 0.682 µM)	1 (≈ 2.73 µM)	–	–
CN1CCC2=C(C1)CN(c1c(F)cc3c(=O)c(C(=O)O)cn(C4CC4)c3c1F)C2.Cl [Example 7B, 1-cyclopropyl-6,8-difluoro-1,4-dihydro-7-(5-methyl-2,3,4,5,6,7-hexahydro-1H-pyrrolo[3,4-c]-pyridin-2-yl)-4-oxo-3-quinolinecarboxylic acid hydrochloride]	2	–	–	–	–	0.06	0.06	–	0.02	–	–	1	–	–	–	–	0.03	–	0.06	–
CN1CCC2=C(C1)CN(c1c(F)cc3c(=O)c(C(=O)O)cn(C4CC4)c3c1Cl)C2 [Example 8, 8-chloro-1-cyclopropyl-6-fluoro-1,4-dihydro-7-(5-methyl-2,3,4,5,6,7-hexahydro-1H-pyrrolo[3,4-c]pyridin-2-yl)-4-oxo-3-quinolinecarboxylic acid]	1 (≈ 2.39 µM)	–	–	–	0.06 (≈ 0.144 µM)	0.03 (≈ 0.0718 µM)	0.03 (≈ 0.0718 µM)	–	0.03 (≈ 0.0718 µM)	–	–	0.5 (≈ 1.2 µM)	–	–	–	–	0.06 (≈ 0.144 µM)	0.13 (≈ 0.311 µM)	0.06 (≈ 0.144 µM)	0.06 (≈ 0.144 µM)
Cc1c(F)c(N2CC3=C(CN(C)CC3)C2)cc2c1c(=O)c(C(=O)O)cn2-c1ccc(F)cc1F [Example 9, 1-(2,4-difluorophenyl)-6-fluoro-1,4-dihydro-5-methyl-7-(5-methyl-2,3,4,5,6,7-hexahydro-1H-pyrrolo[3,4-c]-pyridin-2-yl)-4-oxo-3-quinolinecarboxylic acid]	128 (≈ 273 µM)	0.5 (≈ 1.07 µM)	0.5 (≈ 1.07 µM)	–	–	0.06 (≈ 0.128 µM)	0.06 (≈ 0.128 µM)	128 (≈ 273 µM)	0.25 (≈ 0.533 µM)	–	–	–	0.5 (≈ 1.07 µM)	0.5 (≈ 1.07 µM)	0.5 (≈ 1.07 µM)	–	–	–	–	–
Nc1cccc2c1CN(c1c(F)cc3c(=O)c(C(=O)O)cn(C4CC4)c3c1F)C2 [Ref., 7-(4-amino-1,3-dihydro-isoindol-2-yl)-1-cyclopropyl-6,8-difluoro-1,4-dihydro-4-oxo-3-quinolinecarboxylic acid, reference compound]	128 (≈ 322 µM)	1 (≈ 2.52 µM)	–	–	–	0.03 (≈ 0.0755 µM)	0.03 (≈ 0.0755 µM)	128 (≈ 322 µM)	0.5 (≈ 1.26 µM)	0.5 (≈ 1.26 µM)	–	–	1 (≈ 2.52 µM)	–	1 (≈ 2.52 µM)	–	–	–	4 (≈ 10.1 µM)	–
